Measurements from patent US8361765B2, “Enzymic method for the enantioselective reduction of keto compounds” (IEP GmbH, priority 2001, dated 2013).

Experiments:
[1] = tested on: alcohol dehydrogenase from Lactobacillus minor; experiment: Spectrum of substrates; type: biochemical; conditions: 10 mM keto compound as substrate, 0.19 mM NADPH, pH 7.0; activity with ethyl 4-chloro-3-oxo-butanoate set to 100%
Experimental: Furthermore, substrates other than ethyl 4-chloro-3-oxo-butanoate were also used in the enzymic assay mixture. For this purpose, the following assay mixture was used: • 970 μl of triethanolamine buffer (100 mM, pH=7.0, 1 mM MgCl2 containing 10 mM keto compound) • 20 μl of NADPH (0.19 mM in assay mixture) • 10 μl of enzyme (1:100)
The activity determined with ethyl 4-chloro-3-oxo-butanoate was set to 100% and the enzyme activities of the other substrates were related to this value.

[2] = tested on: L. minor alcohol dehydrogenase; experiment: Enzyme stability in organic solvents; type: biochemical, Lactobacillus minor; conditions: for Enzyme activity relative to starting value, t = 2 h / Enzyme activity relative to starting value, t = 8 h / Enzyme activity relative to starting value, t = 24 h / Enzyme activity relative to starting value, t = 48 h: room temperature; for action of the solvent on the alcohol dehydrogenase (in words): Table 7
Experimental: The stability of the enzyme when contacted with organic solvents was studied by diluting L. minor alcohol dehydrogenase 1:100 in the solvent mixtures listed, followed by incubation at room temperature (for organic solvents not miscible with water, the dilution refers to the aqueous phase). Continuous mixing of both phases was ensured (shaker, 200 rpm). 10 μl of the enzyme solution were then used in the standard assay mixture. Here too, the starting value was set to 100% after dilution in the buffer (triethanolamine buffer 100 mM, pH=7.0, 1 mM MgCl2), with all other values being related to this value.

[3] = octanol/water; cited from earlier work
[4] = 10% water-miscible solvent in buffer
[5] = 20% water-miscible solvent in buffer
[6] = 20% solvent not miscible with water, two phases shaken 200 rpm

SMILES | action of the solvent on the alcohol dehydrogenase (in words) [2] | Enzyme activity relative to starting value, t = 2 h [2, 6] | Enzyme activity relative to starting value, t = 8 h [2, 6] | Enzyme activity relative to starting value, t = 24 h [2, 6] | Enzyme activity relative to starting value, t = 48 h [2, 6] | logP [3] | other results
CCCCCCC(C)=O [2-Octanone] | – | – | – | – | – | – | Activity in % (n = 2) [1]: 90.8 ± 1.2%
C[S+](C)[O-] [DMSO, dimethyl sulfoxide] | activating and, respectively, stabilizing action | – | – | – | – | – | Enzyme activity relative to starting value, t = 2 h [2, 4]: 73%; Enzyme activity relative to starting value, t = 8 h [2, 4]: 54%; Enzyme activity relative to starting value, t = 24 h [2, 4]: 60%; Enzyme activity relative to starting value, t = 48 h [2, 4]: 40%; Enzyme activity relative to starting value, t = 2 h [2, 5]: 73%; Enzyme activity relative to starting value, t = 8 h [2, 5]: 54%; Enzyme activity relative to starting value, t = 24 h [2, 5]: 57%; Enzyme activity relative to starting value, t = 48 h [2, 5]: 40%
CCOC(=O)C(=O)CCc1ccccc1 [Ethyl 2-oxo-4-phenylbutyrate] | – | – | – | – | – | – | Activity in % (n = 2) [1]: 62.7 ± 4.8%
CCOC(=O)CC(=O)CCl [Ethyl 4-chloro-3-oxo-butanoate] | – | – | – | – | – | – | Activity in % (n = 2) [1]: 100%
CCOC(=O)C(C)=O [Ethyl pyruvate] | – | – | – | – | – | – | Activity in % (n = 2) [1]: 192.3 ± 11.5%
COC(=O)CC(C)=O [Methyl acetoacetate] | – | – | – | – | – | – | Activity in % (n = 2) [1]: 120 ± 7.7%
CCOCC [diethyl ether] | – | 53% | 42% | 37% | 23% | 0.85 | –
CC(C)OC(C)C [diisopropyl ether] | – | 100% | 57% | 41% | 29% | 1.55 | –
CCOC(C)=O [ethyl acetate] | – | 87% | 50% | 10% | 8% | – | –
OCC(O)CO [glycerol] | activating and, respectively, stabilizing action | – | – | – | – | −3 | Enzyme activity relative to starting value, t = 2 h [2, 4]: 120%; Enzyme activity relative to starting value, t = 8 h [2, 4]: 64%; Enzyme activity relative to starting value, t = 24 h [2, 4]: 62%; Enzyme activity relative to starting value, t = 48 h [2, 4]: 28%; Enzyme activity relative to starting value, t = 2 h [2, 5]: 120%; Enzyme activity relative to starting value, t = 8 h [2, 5]: 100%; Enzyme activity relative to starting value, t = 24 h [2, 5]: 100%; Enzyme activity relative to starting value, t = 48 h [2, 5]: 104%
CCCCCCC [heptane] | do not exhibit this stabilizing action | 51% | 49% | 7% | 6% | 4 | –
CCCCCC [hexane] | do not exhibit this stabilizing action | 80% | 39% | 2% | 5% | – | –
CC(C)O [isopropanol] | inactivating action | – | – | – | – | – | –
CCCCCCCC [octane] | do not exhibit this stabilizing action | 87% | 47% | 2% | 1% | – | –
CCCCC [pentane] | do not exhibit this stabilizing action | 74% | 55% | 7% | 6% | 3 | –
OC[C@@H](O)[C@@H](O)[C@H](O)[C@@H](O)CO [sorbitol] | activating and, respectively, stabilizing action | – | – | – | – | – | Enzyme activity relative to starting value, t = 2 h ([2]; 1M in buffer): 93%; Enzyme activity relative to starting value, t = 8 h ([2]; 1M in buffer): 74%; Enzyme activity relative to starting value, t = 24 h ([2]; 1M in buffer): 60%; Enzyme activity relative to starting value, t = 48 h ([2]; 1M in buffer): 6%
COC(C)(C)C [tert-butyl methyl ether] | – | 67% | 51% | 38% | 24% | 1.21 | –
